Earlier results on 1 compound are cited in patent US20180185454A1, “AGENT FOR PREVENTING ONSET OF IDIOPATHIC OSTEONECROSIS OF FEMORAL HEAD AND/OR SUPPRESSING PROGRESS OF SAME” (ASAHI KASEI PHARMA CORPORATION, priority 2015, published 2018).

Where two headings read alike, the source gives them in different places.

Data set [1] concerns bone formation markers.
The test system of data set [2] is osteonecrosis of the jawbone. The following applies: induced by bisphosphonates and denosumab.
Data set [3] has as its system ION. The note with it: vs alendronate control; no statistical superiority between the two groups; dosage not disclosed.

As to `CC[C@H](C)[C@H](NC(=O)[C@H](CCC(=O)O)NC(=O)[C@H](CO)NC(=O)[C@@H](NC(=O)[C@@H](N)CO)C(C)C)C(=O)N[C@@H](CCC(N)=O)C(=O)N[C@@H](CC(C)C)C(=O)N[C@@H](CCSC)C(=O)N[C@@H](Cc1cnc[nH]1)C(=O)N[C@@H](CC(N)=O)C(=O)N[C@@H](CC(C)C)C(=O)NCC(=O)N[C@@H](CCCCN)C(=O)N[C@@H](Cc1cnc[nH]1)C(=O)N[C@@H](CC(C)C)C(=O)N[C@@H](CC(N)=O)C(=O)N[C@@H](CO)C(=O)N[C@@H](CCSC)C(=O)N[C@@H](CCC(=O)O)C(=O)N[C@@H](CCCN=C(N)N)C(=O)N[C@H](C(=O)N[C@@H](CCC(=O)O)C(=O)N[C@@H](Cc1c[nH]c2ccccc12)C(=O)N[C@@H](CC(C)C)C(=O)N[C@@H](CCCN=C(N)N)C(=O)N[C@@H](CCCCN)C(=O)N[C@@H](CCCCN)C(=O)N[C@@H](CC(C)C)C(=O)N[C@@H](CCC(N)=O)C(=O)N[C@@H](CC(=O)O)C(=O)N[C@H](C(=O)N[C@@H](Cc1cnc[nH]1)C(=O)N[C@@H](CC(N)=O)C(=O)N[C@@H](Cc1ccccc1)C(=O)O)C(C)C)C(C)C` [teriparatide], the “effect on bone formation markers” value is reported as “markedly increases” in data set [1] (20 μg daily formulation) and “only slightly” in data set [1] (56.5 μg once-a-week formulation). Moreover, the “effect against osteonecrosis of the jawbone” value in data set [2] is listed as “have an effect”. Further, the “femoral head collapse progress (difference in collapse values before and after administration, simple x-ray frontal views)” value in data set [3] is recorded as “tended to suppress femoral head collapse progress in comparison to alendronate”.
